Experiments:
HEK-293T cells [1] = assay: Extracellular acidification rate (ECAR), Seahorse analysis, HEK-293T cells; assay type: cell-based, human; conditions: trehalose 5 mM, oligomycin 1 μM, 2DG 50 mM, added in sequence
Protocol: FIG. 3: Treh and Tret1 co-expression allows utilization of Trehalose as a carbon source for glycolysis. Line graph of the Extra Cellular Acidification Rate (ECAR) of Tret1-3×Flag and Treh-GFP expressing (transduced with retrovirus expressing both Tret1-3×Flag and Treh-GFP) or wild-type HEK-293T cells. Trehalose was added at 5 mM, Oligomycin at 1 μM and 2DG (2-Deoxy-D-glucose) at 50 mM.
To directly examine this notion, whether trehalose restores glycolysis of Treh/Tret1 expressing cells was tested. For this purpose, the extracellular acidification rate (ECAR), as a proxy for lactate secretion, of Treh/Tret1 or wild-type cells, was analyzed using Seahorse analysis.

human CD8 T cells = assay: Metabolic isotope tracing (13C6-glucose vs 13C12-trehalose, LC-MS) in DmTret1-1B/Treh-expressing human CD8 T cells; assay type: cell-based; conditions: 24 h with 13C12-Trehalose vs 13C6-Glucose; glycolysis, pentose phosphate pathway, TCA cycle
Protocol: FIGS. 6A-6I: Human primary T cells utilize trehalose for glycolysis, proliferation and cytokine production. Human primary PBMCs were activated with anti-CD3 and anti-CD28 for 48 hours. Then, they were retrovirally transduced with Treh1 and a trehalose transporter. (6A) FACS analysis of the T cells transduced with Treh1-GFP and Dm-Tret1-1B-mKate2. CD8 T cells were gated, and expression was analyzed 48 h after transduction. (6B) FACS analysis of the T cells transduced with Treh1-GFP and Dm-Tret1-1A-mKate2. CD8 T cells were gated, and expression was analyzed 48 h after transduction. (6C) Normalized ECAR measured by Seahorse analysis following trehalose or glucose supplementation and oligomycin and 2DG injections of Treh1 or DmTret1-1B/Treh1-expressing CD8 T cells. (6D-G): DmTret1-1B/Treh-expressing human CD8 T cells were incubated for 24 h with 13C6-Glucose or 13C12-Trehalose. Then cell extracts and media were subjected to metabolic analysis using LC-MS. (6D) Levels of lactate isotopologues in the medium of the cells. (6E-G) Isotopologue distributions in the cell fraction of detected key metabolites generated during (6E) glycolysis, (6F) the TCA cycle and (6G) the phosphate pentose pathway. […] Cells were counted every 3-4 days. […] Media was collected and INF-γ concentration was measured by ELISA at optical density of 605 (O.D.605). […]

HEK-293T cells [2] = assay: Cell survival by PI staining (flow cytometry) of transfected HEK-293T cells in glucose-free, trehalose-supplemented medium; assay type: cell-based, human; conditions: four days
Protocol: (§1) FIGS. 2A-2C: Treh and Tret1 co-expression rescues the proliferation and survival of HEK-293T cells in glucose-free, trehalose-supplemented medium. (2A) Histograms of cell survival as measured by PI staining using a flow cytometer. HEK-293T cells were transfected with either Tret1-3×Flag expression plasmid, HA-Treh expression plasmid or both together. 48 h post-transfection medium was replaced to a glucose-free medium supplemented with the indicated trehalose concentrations. Four days later flow analysis was performed. (2B) Histograms of cell survival as measured by PI staining using a flow cytometer. HEK-293T cells were co-transfected with Tret1-3×Flag and HA-Treh expression plasmids or pCDNA3.1 (empty vector). 48 h post-transfection medium was replaced with glucose-free medium supplemented with the 25 mM trehalose. Four days later, flow analysis was performed. (2C) Bar graph of MMT analysis. HEK-293T cells were transfected with pCDNA3.1 (empty vector), Tret1-3×Flag or HA-Treh expression plasmids or both plasmids together. 48 h post-transfection medium was replaced with glucose-free medium supplemented with 25 mM trehalose. Ten days later, cell survival was measured by MTT assay.
(§2) To test the function of delivered Treh and Tret1 genes in HEK-293T cells the survival of Treh/Tret1 expressing cells was tested in the absence or presence of various trehalose concentrations in glucose-free media.

HEK-293T cells [3] = assay: MTT assay of transfected HEK-293T cells in glucose-free medium supplemented with trehalose; assay type: cell-based, human
Protocol: as §1, §2

With `O=CC[C@@H](O)[C@H](O)[C@H](O)CO` [2-Deoxy-D-glucose, reference compound] as the molecule, how does the “ECAR of HEK293T cells expressing Treh/Tret1 following addition” value (HEK-293T cells [1]) read?
The value was “significantly decreased”.

What does the source list for `OC[C@H]1O[C@H](O[C@H]2O[C@H](CO)[C@@H](O)[C@H](O)[C@H]2O)[C@H](O)[C@@H](O)[C@@H]1O` [trehalose]?
ECAR of HEK293T cells expressing Treh/Tret1 following addition (HEK-293T cells [1]): significant increase; metabolic pathways into which the sugar integrates (human CD8 T cells): integrates into the same metabolic pathways as glucose; rescue of survival of Treh/Tret1 expressing cells (HEK-293T cells [2]; HEK-293T co-transfected with Tret1-3×Flag and HA-Treh, glucose-free medium + 25 mM trehalose): could rescue the survival; rescue of survival of empty vector transfected cells (HEK-293T cells [2]; HEK-293T with pCDNA3.1 empty vector, glucose-free medium + 25 mM trehalose): not; survival of Treh/Tret1 expressing cells (HEK-293T cells [2]; HEK-293T, glucose-free media, 2 mM trehalose, PI staining): substantial rescue; survival of Treh/Tret1 expressing cells versus trehalose concentration (HEK-293T cells [2]; HEK-293T, glucose-free media, various trehalose concentrations): increased survival of the cells in correlation with the trehalose concentration

For `CC[C@H]1/C=C/C=C/C[C@@H](C)[C@H](O)[C@@](C)(O)C(=O)[C@@H](C)[C@H](O)[C@@H](C)C(=O)[C@@H](C)[C@H](O)[C@@H](C)/C=C/C(=O)O[C@@H]2[C@H](C)[C@H](CC1)O[C@]1(CC[C@H](C)[C@H](C[C@@H](C)O)O1)[C@H]2C` [oligomycin, reference compound], which “ECAR of HEK293T cells expressing Treh/Tret1 following addition” value (HEK-293T cells [1]) is on record?
Its value is “did not lead to an elevation in ECAR”.

B1: Tret1: Drosophila melanogaster trehalose transporter 1, long isoform A, 857 amino acids (SEQ ID NO: 5), expressed in human cells (protein)
chain: MSGRDNRGAGGGGGGHQPLSNAMGKLKEKLTRVGDELGYHRVESNLSTSNTATSLDTILPEDPFLFPQVSPQRHPQNTVRTQRLLEDEPPLSFRPLLEDDDINEPPTQQQQRTPLRASGSLELTPLPPPPTSLEIREHRDRQQRGAQGDELQRSKQSLKGSRVSFERRDTGNSNTNSNKAAESSDEDSFEEKRTGFQQQKATSVDHKGILKDLKHILANDNRRQFQAKKHVSLDVKGTRFLQDLLKESSSEEEFHKTRREFQGRKHQSLDPRVTFKLDKVLQGSSTDSDEEGEDAEHKRLIHRPKDITKPVIIDLKDLESESDEDFLTSRQHFQQQRSISTDSRKSRRLYEMDEMDNKRGENIRHAVPFVRQITEDGKPKLEVYRPTTNPIYIWTQVLAALSVSLGSLVVGFVSAYTSPALVSMTDRNITSFEVTQDAGSWVGGIMPLAGLAGGIAGGPLIEYLGRRNTILATAVPFIVSSLLIACAVNVAMVLCGRFLAGFCVGIASLSLPVYLGETVQPEVRGTLGLLPTAFGNIGILLCFVAGSFMNWSMLAFLGAALPVPFLILMFLIPETPRWFVGRGLEERARKALKWLRGKEADVEPELKGLMRSQADADRQASRNTMLELLKLNNLKPLSISLGLMFFQQFSGINAVIFYTVQIFKDAGSTIDGNLCTIIVGIVNFLATFIGIVLIDRAGRKILLYVSDIAMVLTLFVLGGFFYCKTYGPDVSHLGWLPLTCFVIYILGFSLGFGPIPWLMMGEILPAKIRGSAASVATAFNWFCTFVVTKTFQDLTVAMGAHGAFWLFGAICFVGLFFVIIYVPETQGKTLEDIERKMMGRVRRMSSVANIKPLSFNM
modifications: 3xFlag tag; Drosophila melanogaster
For B1, which “survival of mammalian cells with trehalose as the only sugar source (summary statement)” value (HEK-293T cells [3]) is on record?
Its value is “greatly improved survival”.
